Data published in patent US9145411B2, “Substituted amino-pyrimidine derivatives” (Asana Biosciences, LLC, priority 2012, dated 2015).

Legend:
pS6RP (S235/236) = assay: In-cell Western assay, pS6RP (S235/236), PC3 cells; assay type: cell-based; conditions: Homo sapiens, PC-3, 2 hours incubation
Protocol: (§1) Cells from human prostate cancer cell line PC3 (American Type Culture Collection (ATCC), Manassas, Va. 20108 USA) were seeded at an optimal density of 22,000 cell/well in 96-well plates containing Ham's F12K medium (90 μL) and incubated overnight. The compound dilutions were carried out in 100% DMSO followed by a dilution in the medium. Test compounds were added in serial dilutions to the wells and incubated for 2 hours. The cells were washed and fixed with 4% paraformaldehyde. After incubation at room temperature for 1 hour in the dark, blocking was done for 2 hours at room temperature. Primary antibodies for pAkt(S473) ([…] phosphorylated at serine 473), pAkt(T308) (Akt phosphorylated at threonine 308) and for pS6RP (S235/236) (phosphorylated at serine 235/236) (commercially available from Cell Signaling Technology®, whose protocol was followed for the in-cell western assay, were diluted to the required concentration and added to the corresponding wells followed by overnight incubation at 4° C. Eu-labeled rabbit (PE) (Perkin-Elmer USA catalog #AD0106) secondary antibody was added and incubated for 2 hours at room temperature. Delfia® enhancement solution (cat #1244-105, Perkin Elmer USA) was subsequently added to the plate before taking the reading at 615 nm with excitation wavelength of 340 nm, after which 0.5 μg/mL of Hoechst® 33258 dye (Catalog #86140-5, Sigma) was added to the plate and fluorescence emission was read at 460 nm with 355 nm excitation, to evaluate the correction factor. IC50 values were calculated using a sigmoidal dose-response curve fit in GraphPad Prism® v5 software.

pAkt(S473) = assay: In-cell Western assay, pAkt(S473), PC3 cells; assay type: cell-based; conditions: Homo sapiens, PC-3, 2 hours incubation
Protocol: as §1

PI3Kα (wild-type) = target: T1, PI3Kα (wild-type) (Homo sapiens, UniProt P42336); assay: PI3 Kinase TR-FRET assay, PI3Kα (wild-type); assay type: biochemical; conditions: wild-type P110/P85α, 10 μM ATP
T1 construct: made in house; host or cells: SF9 insect cells
T1 sequence (P42336 whole entry, species assumed): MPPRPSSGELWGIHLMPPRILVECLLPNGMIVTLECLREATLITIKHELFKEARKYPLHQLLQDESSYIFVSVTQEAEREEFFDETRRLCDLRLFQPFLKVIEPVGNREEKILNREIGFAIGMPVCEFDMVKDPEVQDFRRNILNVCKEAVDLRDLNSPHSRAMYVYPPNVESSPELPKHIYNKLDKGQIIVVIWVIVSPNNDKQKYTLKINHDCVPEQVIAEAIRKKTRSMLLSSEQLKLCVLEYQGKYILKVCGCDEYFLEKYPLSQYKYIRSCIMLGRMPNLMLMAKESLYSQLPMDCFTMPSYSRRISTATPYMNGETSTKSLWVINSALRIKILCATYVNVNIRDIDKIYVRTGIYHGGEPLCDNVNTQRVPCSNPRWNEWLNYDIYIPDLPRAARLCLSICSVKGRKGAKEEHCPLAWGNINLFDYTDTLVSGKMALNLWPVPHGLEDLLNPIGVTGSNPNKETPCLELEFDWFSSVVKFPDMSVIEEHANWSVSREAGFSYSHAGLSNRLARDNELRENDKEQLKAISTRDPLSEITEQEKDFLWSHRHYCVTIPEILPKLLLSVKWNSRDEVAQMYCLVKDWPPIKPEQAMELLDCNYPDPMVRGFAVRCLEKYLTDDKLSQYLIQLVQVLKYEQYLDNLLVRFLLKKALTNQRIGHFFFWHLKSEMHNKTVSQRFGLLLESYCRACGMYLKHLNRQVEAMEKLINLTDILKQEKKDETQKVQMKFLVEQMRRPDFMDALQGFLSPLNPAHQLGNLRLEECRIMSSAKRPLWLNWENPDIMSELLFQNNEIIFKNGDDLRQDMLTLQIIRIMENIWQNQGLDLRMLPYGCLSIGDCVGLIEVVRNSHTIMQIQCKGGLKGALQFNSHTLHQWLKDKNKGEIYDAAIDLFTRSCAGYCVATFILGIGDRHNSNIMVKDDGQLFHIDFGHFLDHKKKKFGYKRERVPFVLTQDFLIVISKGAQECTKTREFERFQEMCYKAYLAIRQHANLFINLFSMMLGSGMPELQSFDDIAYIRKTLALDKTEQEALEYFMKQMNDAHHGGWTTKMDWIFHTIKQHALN
T1 sequence (P27986 whole entry partner, species assumed): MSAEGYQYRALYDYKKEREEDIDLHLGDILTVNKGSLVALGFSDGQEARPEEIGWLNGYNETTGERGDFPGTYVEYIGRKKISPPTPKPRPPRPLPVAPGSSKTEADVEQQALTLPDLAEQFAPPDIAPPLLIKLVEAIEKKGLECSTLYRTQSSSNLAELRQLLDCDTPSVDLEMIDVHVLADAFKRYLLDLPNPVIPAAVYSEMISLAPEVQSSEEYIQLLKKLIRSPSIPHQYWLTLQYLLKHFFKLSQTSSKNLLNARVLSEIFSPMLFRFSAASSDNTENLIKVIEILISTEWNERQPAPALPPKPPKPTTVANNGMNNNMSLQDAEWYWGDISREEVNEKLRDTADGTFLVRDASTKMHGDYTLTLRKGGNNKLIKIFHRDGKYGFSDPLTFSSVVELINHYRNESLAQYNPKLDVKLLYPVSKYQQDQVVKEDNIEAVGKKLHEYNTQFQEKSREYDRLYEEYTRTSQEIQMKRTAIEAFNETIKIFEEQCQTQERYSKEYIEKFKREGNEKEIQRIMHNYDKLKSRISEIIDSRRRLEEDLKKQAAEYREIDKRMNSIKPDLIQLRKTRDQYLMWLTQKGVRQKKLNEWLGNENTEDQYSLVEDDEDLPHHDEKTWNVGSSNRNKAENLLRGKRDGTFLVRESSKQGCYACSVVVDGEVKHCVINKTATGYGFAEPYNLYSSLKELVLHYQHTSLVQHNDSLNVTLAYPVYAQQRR
Method in brief: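 Sf9-expressed, Ni-purified p110/p85α (5 ng) with PIP2 was preincubated with compound for 60 min at room temperature in buffer with 40 mM MgCl2 and 5 mM DTT. The reaction ran 30 min at room temperature with 10 μM PIP2 and 10 μM ATP. The TR-FRET 665/615 nm ratio was used to derive IC50 from dose-response curves.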

mTOR kinase = target: T2, mTOR kinase (Homo sapiens, UniProt P42345); assay: mTOR kinase TR-FRET assay; assay type: biochemical; conditions: 20 μM ATP
T2 construct: purchased Millipore, USA
T2 sequence (P42345 1362-2549 limits assumed): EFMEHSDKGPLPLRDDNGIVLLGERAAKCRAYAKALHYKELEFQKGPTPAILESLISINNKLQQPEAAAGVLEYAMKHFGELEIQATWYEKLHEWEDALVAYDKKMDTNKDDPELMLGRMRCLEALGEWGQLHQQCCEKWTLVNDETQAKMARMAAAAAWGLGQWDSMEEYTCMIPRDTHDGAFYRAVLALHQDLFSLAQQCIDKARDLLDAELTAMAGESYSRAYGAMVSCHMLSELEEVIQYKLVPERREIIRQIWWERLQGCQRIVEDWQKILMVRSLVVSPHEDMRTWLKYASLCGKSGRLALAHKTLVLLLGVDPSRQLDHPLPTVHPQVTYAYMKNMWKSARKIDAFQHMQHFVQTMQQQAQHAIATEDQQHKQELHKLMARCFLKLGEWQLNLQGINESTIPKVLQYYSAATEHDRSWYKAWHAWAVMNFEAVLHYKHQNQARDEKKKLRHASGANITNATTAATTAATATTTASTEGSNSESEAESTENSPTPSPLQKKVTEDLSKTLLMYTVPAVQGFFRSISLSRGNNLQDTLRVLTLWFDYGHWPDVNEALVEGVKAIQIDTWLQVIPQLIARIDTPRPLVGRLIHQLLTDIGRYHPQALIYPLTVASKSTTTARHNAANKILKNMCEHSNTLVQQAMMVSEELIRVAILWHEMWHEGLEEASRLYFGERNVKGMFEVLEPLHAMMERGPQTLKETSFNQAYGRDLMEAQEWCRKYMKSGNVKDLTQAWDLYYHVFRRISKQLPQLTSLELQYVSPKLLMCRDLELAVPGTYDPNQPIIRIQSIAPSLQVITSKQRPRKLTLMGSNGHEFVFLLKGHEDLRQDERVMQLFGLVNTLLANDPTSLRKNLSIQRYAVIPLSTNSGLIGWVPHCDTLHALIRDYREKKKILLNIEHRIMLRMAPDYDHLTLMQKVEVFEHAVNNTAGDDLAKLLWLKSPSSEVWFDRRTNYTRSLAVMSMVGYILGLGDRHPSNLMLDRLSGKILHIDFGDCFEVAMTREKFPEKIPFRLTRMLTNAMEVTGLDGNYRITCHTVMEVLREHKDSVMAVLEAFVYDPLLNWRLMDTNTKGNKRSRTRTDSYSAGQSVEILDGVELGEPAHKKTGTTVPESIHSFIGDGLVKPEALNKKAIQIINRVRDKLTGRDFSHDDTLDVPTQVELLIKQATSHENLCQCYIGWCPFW
Method in brief: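 Test compounds were pre-incubated 60 min with mTOR (5 ng), then ULight-p70 S6K (Thr389) peptide (50 nM) and ATP (20 μM) were added in HEPES 50 mM pH 7.5, EGTA, MnCl2 3 mM. After 60 min at room temperature, EDTA stop and Eu-anti-phospho antibody TR-FRET (665/615 nm) gave IC50 from sigmoidal variable-slope fits.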

PC3 cells = assay: XTT assay for cell viability, PC3 cells; assay type: cell-based; conditions: Homo sapiens, PC-3; PC3 cell proliferation, 96 hours
Method in brief: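 Log-phase PC3 cells (1000/well) were seeded for 24 h, then exposed to serially diluted compounds (DMSO dilutions) for 96 h. Viability was measured by XTT dye conversion at 37 °C, with absorbance read at 465 nm. EC50 was obtained from a sigmoidal dose-response fit.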

pAkt(T308) = assay: In-cell Western assay, pAkt(T308), PC3 cells; assay type: cell-based; conditions: Homo sapiens, PC-3, 2 hours incubation
Method in brief: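 PC3 cells, 22,000/well in Ham's F12K, exposed to serial compound dilutions for 2 h, then fixed and immunostained for each phospho-epitope. Eu-labelled secondary read by time-resolved fluorescence (ex 340, em 615 nm), corrected by Hoechst 33258 signal (ex 355, em 460 nm). IC50 from sigmoidal dose-response fit.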

| SMILES | IC50 (pS6RP (S235/236)) [nM] | IC50 (pAkt(S473)) [nM] | IC50 (PI3Kα (wild-type)) [nM] | IC50 (mTOR kinase) [nM] | IC50 (PC3 cells) [nM] | IC50 (pAkt(T308)) [nM] |
| --- | --- | --- | --- | --- | --- | --- |
| CC(=O)Nc1cccc(-c2cnc3c(N4CCOCC4)nc(-c4cnc(N)nc4)nc3c2)c1 [Example 3, N-(3-(2-(2-Aminopyrimidin-5-yl)-4-morpholinopyrido[3,2-d]pyrimidin-7-yl)-phenyl)acetamide] | 100 to 500 | 100 to 500 | < 50 | < 50 | 100 to 500 | 100 to 500 |
| N#CC1(C(=O)Nc2cccc(-c3cnc4c(N5CCOCC5)nc(-c5cnc(N)nc5)nc4c3)c2)CC1 [Example 61, N-(3-(2-(2-amino-pyrimidin-5-yl)-4-morpholinopyrido[3,2-d]pyrimidin-7-yl)phenyl)-1-cyanocyclopropane-carboxamide] | < 100 | 100 to 500 | < 50 | < 50 | 100 to 500 | < 100 |
| Nc1ncc(-c2nc(N3CCOCC3)c3ncc(-c4cccc(NC(=O)C5CC5)c4)cc3n2)cn1 [Example 7, N-(3-(2-(2-Aminopyrimidin-5-yl)-4-morpholinopyrido[3,2-d]pyrimidin-7-yl)-phenyl)cyclopropanecarboxamide] | 100 to 500 | < 100 | < 50 | < 50 | 100 to 500 | 100 to 500 |
